One test addresses T1, Streptokinase A (Streptococcus pyogenes serotype M1, UniProt P10520).
T1 sequence (P10520 whole entry): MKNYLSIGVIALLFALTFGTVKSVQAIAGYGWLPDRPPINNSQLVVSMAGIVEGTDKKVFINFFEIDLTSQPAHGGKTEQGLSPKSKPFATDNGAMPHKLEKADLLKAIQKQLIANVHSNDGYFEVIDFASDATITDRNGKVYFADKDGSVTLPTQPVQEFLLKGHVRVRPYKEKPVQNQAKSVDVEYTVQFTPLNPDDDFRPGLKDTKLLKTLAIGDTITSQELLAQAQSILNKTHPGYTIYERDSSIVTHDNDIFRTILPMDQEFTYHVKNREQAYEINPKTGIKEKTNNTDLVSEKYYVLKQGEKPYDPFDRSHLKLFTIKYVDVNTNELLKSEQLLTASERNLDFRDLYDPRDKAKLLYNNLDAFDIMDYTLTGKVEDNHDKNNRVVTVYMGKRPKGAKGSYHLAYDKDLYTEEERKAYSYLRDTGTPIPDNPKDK
Nature of the test: S. pyogenes streptokinase expression inhibitors, potency, dose response, plasminogen activation absorbance, OD405 (AID 1914).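 Also: secreted streptokinase activity via plasminogen activation per viability signal from cell pellet.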 It is filed as functional, Streptococcus pyogenes M1 GAS.

Test [1] concerns Streptococcus sp. 'group A'. Nature of the test: growth inhibition of control SK(-) GAS strain, dose response, counter-screen for streptokinase expression inhibitor project, luminescence, kanamycin, BacTiterGlo, confirmation (AID 1900). The format is functional, organism-based.
The target of test [2] is DNA (cytosine-5)-methyltransferase 1 (Homo sapiens, UniProt P26358). Nature of the test: DNMT1 methyltransferase inhibitors, confirmation, biochemical, fluorescent molecular beacon (AID 602386). It is filed as functional.
In test [3] the target is T2, Carboxy-terminal domain RNA polymerase II polypeptide A small phosphatase 1 (Homo sapiens, UniProt Q9GZU7).
T2 sequence (Q9GZU7 whole entry): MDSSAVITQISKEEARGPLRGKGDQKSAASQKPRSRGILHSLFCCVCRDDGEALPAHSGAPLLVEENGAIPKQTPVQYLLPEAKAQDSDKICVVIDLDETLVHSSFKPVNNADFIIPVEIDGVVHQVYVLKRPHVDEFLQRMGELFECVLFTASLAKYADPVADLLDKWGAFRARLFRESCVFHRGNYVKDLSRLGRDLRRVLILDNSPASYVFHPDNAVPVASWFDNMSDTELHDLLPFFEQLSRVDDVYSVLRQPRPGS
Nature of the test: inhibitors of CTDSP1, concentration-response testing, biochemical assay, absorbance-based, actives from ultra-high-throughput screening (AID 540297). It is filed as functional.

Another test concerns Streptococcus. The experiment in a line: Group A Streptococcus viability loss, dose response, counter-screen for streptokinase expression inhibitor project, luminescence, BacTiterGlo (AID 1915).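 Also: potency for reduction of bacterial viability or growth.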 It is filed as functional, organism-based.
Test [4] concerns Vero. Nature of the test: Vero cell toxicity, dose response, cytotoxicity control, plate reader, cherry-pick samples (AID 687020). The format is functional, cell-based. Conditions: Chlorocebus sabaeus.
Test [5] concerns the target T3, Low molecular weight phosphotyrosine protein phosphatase (Homo sapiens, UniProt P24666).
T3 sequence (P24666 whole entry): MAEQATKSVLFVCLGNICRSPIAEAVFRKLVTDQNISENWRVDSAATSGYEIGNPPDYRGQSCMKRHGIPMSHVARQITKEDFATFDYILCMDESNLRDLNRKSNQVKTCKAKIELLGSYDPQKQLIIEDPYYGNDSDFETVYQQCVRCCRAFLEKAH
It is filed as functional. The conditions noted are these: read-out: IC50_Mean.

Test [6] concerns the target T3, Low molecular weight phosphotyrosine protein phosphatase. The format is functional. Conditions: read-out: IC50_Mean. This is another data set of the same source.
Test [7] addresses T4, Heat shock factor protein 1 (Mus musculus, UniProt P38532).
T4 sequence (P38532 whole entry): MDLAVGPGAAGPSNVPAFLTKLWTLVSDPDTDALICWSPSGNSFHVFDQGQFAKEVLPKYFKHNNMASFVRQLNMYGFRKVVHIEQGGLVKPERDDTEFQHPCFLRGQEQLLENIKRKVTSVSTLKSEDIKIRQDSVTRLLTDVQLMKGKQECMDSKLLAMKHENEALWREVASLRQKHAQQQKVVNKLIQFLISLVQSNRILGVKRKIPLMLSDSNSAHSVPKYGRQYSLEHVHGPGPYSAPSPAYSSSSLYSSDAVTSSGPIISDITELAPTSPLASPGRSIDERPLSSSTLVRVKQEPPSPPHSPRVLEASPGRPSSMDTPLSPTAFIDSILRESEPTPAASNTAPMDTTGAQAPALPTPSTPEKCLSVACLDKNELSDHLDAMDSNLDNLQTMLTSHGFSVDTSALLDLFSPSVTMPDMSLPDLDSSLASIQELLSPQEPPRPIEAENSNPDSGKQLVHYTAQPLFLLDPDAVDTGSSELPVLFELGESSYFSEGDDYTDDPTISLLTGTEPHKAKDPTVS
Nature of the test: HSF1 potentiators in luciferase reporter cells, confirmation, cell-based, NIH3T3, luminescence, dose retest (AID 435004).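 Also: stress induced by proteasome inhibitor MG132 added 30 min after compound; luciferase reporter driven by HSF1 response element in NIH3T3 cells; actives raise luminescence as potentiators of the MG132 stress response.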 It is filed as functional.

Test [8] has as its target Protein disulfide-isomerase (Homo sapiens, UniProt P07237). Nature of the test: PDI inhibitors, insulin aggregation turbidity, dose response, biochemical, absorbance, cherry-picked samples (AID 602350). It is filed as functional.
Test [9] deals with T5, Corticotropin-releasing factor receptor 2/Corticotropin-releasing factor-binding protein (Homo sapiens, UniProt P24387+Q13324).
T5 sequence (Q13324 whole entry): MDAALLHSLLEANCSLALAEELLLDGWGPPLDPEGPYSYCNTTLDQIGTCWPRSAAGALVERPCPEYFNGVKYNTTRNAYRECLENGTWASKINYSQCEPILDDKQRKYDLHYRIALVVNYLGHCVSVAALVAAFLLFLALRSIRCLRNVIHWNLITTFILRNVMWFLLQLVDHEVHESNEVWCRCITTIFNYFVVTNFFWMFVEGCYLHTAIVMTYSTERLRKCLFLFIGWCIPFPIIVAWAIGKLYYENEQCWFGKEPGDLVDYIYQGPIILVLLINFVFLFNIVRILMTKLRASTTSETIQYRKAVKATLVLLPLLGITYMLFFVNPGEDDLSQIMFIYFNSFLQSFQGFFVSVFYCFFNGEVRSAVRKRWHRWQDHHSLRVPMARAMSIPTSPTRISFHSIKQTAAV
T5 sequence (P24387 whole entry): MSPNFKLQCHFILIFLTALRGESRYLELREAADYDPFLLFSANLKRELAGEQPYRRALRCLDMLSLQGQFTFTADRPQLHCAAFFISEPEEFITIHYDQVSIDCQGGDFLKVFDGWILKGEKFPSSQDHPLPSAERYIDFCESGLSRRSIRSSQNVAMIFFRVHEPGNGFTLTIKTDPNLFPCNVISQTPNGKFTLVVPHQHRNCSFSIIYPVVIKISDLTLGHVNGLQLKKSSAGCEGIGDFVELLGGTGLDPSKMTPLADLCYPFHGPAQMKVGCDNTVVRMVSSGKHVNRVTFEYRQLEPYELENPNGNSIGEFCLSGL
Nature of the test: activators of CRF receptor 2 with binding protein – uHTS hits, confirmation (AID 602473). Conditions: read-out: EC50_Mean. The format is functional.

Another test addresses T6, Hexokinase HKDC1 (Homo sapiens, UniProt Q2TB90).
T6 sequence (Q2TB90 whole entry): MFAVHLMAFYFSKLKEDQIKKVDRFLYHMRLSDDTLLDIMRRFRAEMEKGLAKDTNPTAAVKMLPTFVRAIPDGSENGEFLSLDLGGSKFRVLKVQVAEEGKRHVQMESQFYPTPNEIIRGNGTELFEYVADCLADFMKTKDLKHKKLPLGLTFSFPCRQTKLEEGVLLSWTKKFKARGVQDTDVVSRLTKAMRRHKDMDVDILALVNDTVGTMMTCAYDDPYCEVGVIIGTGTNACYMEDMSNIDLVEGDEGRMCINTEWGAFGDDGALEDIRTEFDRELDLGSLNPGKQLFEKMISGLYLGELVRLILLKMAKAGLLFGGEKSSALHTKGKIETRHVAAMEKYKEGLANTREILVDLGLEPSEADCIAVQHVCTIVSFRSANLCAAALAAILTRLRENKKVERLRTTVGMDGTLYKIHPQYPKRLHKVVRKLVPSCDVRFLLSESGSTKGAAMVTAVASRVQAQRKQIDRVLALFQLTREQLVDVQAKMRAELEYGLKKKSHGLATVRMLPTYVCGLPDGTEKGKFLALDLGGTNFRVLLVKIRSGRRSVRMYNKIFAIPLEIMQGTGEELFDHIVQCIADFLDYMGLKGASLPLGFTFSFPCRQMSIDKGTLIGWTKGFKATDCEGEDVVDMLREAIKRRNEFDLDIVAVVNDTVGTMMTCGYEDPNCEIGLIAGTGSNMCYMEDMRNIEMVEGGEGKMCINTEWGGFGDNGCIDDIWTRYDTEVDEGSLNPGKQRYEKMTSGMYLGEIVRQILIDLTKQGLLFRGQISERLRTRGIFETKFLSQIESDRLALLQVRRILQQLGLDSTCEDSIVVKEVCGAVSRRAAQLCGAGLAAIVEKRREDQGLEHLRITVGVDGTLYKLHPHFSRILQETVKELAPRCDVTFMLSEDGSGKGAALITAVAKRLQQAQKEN
Nature of the test: HKDC1 hexokinase inhibitors, dose response, biochemical, W721R variant (AID 504729). It is filed as functional.

The next test addresses Phospholipase A2 (Homo sapiens, UniProt P04054). It is filed as functional.
The target of a further test is Large T antigen (Simian virus 40, UniProt P03070). The format is functional, Betapolyomavirus macacae.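 Also: Confirmatory-stage PubChem screen for compounds that inhibit SV40 T antigen.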
A further test addresses T7, Cysteine protease ATG4B (Homo sapiens, UniProt Q9Y4P1).
T7 sequence (Q9Y4P1 whole entry): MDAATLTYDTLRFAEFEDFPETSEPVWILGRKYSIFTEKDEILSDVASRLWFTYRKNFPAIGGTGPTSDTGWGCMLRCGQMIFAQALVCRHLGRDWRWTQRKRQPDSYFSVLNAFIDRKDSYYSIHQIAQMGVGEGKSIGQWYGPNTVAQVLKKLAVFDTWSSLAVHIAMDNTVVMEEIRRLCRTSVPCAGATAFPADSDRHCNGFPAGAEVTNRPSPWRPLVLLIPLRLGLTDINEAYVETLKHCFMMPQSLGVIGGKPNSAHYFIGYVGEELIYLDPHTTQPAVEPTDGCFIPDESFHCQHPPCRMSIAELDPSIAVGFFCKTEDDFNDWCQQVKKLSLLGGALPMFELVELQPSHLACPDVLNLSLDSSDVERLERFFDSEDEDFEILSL
The format is functional.

Test [10] addresses T8, Interleukin-8 (Homo sapiens, UniProt P10145).
T8 sequence (P10145 whole entry): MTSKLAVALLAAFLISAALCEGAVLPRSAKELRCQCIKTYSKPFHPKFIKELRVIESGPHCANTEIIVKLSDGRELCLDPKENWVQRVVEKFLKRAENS
The experiment in a line: Dose Response confirmation of uHTS small molecule hits for cystic fibrosis induced NFkb Inhibitors in a TNFa-induced IL8 counterscreen. The format is functional. Conditions: read-out: IC50_Mean.

The target of test [11] is T8, Interleukin-8. The experiment in a line: Dose Response confirmation of uHTS small molecule hits for cystic fibrosis induced NFkb Inhibitors in a PAF-induced IL8 counterscreen. The format is functional. The conditions noted are these: read-out: IC50_Mean.
In the next test the test system is HEK293. Nature of the test: inhibitors of LMP1-driven NF-kB reporter, dose response, cell-based, HEK293, luciferase, cherry-pick (AID 588343). The format is functional. Conditions: Homo sapiens.
The target of a further test is Paired box protein Pax-8 (Homo sapiens, UniProt Q06710). Nature of the test: inhibitors of PAX8-driven TPO luciferase reporter, dose response, RMG-I cells, cherry-pick (AID 687027).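 Also: luciferase reporter driven by Pax8 target thyroperoxidase promoter measured by SteadyGlo luminescence.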 The format is functional, cell-based.
A short description of test [12]: Fluorescence-based cell-based high throughput dose response assay for inhibitors of the interaction of nucleotide-binding oligomerization domain containing 2 (NOD2) and the receptor-interacting serine-threonine kinase 2 (RIPK2). It is filed as functional. The conditions noted are these: Homo sapiens.
Test [13] relates to Vero. The experiment in a line: Vero cell cytotoxicity, cytotoxicity control for flavivirus capping enzyme inhibitors (AID 588742). The format is functional. Conditions: Chlorocebus sabaeus.

The source made the active and inactive calls. Some results are limits rather than exact numbers.

Consider 8 compounds from ChEMBL document CHEMBL1201862, “PubChem BioAssay data set” (2004).

Sequence of DNA (cytosine-5)-methyltransferase 1 (P26358 whole entry, the tested form may be a part): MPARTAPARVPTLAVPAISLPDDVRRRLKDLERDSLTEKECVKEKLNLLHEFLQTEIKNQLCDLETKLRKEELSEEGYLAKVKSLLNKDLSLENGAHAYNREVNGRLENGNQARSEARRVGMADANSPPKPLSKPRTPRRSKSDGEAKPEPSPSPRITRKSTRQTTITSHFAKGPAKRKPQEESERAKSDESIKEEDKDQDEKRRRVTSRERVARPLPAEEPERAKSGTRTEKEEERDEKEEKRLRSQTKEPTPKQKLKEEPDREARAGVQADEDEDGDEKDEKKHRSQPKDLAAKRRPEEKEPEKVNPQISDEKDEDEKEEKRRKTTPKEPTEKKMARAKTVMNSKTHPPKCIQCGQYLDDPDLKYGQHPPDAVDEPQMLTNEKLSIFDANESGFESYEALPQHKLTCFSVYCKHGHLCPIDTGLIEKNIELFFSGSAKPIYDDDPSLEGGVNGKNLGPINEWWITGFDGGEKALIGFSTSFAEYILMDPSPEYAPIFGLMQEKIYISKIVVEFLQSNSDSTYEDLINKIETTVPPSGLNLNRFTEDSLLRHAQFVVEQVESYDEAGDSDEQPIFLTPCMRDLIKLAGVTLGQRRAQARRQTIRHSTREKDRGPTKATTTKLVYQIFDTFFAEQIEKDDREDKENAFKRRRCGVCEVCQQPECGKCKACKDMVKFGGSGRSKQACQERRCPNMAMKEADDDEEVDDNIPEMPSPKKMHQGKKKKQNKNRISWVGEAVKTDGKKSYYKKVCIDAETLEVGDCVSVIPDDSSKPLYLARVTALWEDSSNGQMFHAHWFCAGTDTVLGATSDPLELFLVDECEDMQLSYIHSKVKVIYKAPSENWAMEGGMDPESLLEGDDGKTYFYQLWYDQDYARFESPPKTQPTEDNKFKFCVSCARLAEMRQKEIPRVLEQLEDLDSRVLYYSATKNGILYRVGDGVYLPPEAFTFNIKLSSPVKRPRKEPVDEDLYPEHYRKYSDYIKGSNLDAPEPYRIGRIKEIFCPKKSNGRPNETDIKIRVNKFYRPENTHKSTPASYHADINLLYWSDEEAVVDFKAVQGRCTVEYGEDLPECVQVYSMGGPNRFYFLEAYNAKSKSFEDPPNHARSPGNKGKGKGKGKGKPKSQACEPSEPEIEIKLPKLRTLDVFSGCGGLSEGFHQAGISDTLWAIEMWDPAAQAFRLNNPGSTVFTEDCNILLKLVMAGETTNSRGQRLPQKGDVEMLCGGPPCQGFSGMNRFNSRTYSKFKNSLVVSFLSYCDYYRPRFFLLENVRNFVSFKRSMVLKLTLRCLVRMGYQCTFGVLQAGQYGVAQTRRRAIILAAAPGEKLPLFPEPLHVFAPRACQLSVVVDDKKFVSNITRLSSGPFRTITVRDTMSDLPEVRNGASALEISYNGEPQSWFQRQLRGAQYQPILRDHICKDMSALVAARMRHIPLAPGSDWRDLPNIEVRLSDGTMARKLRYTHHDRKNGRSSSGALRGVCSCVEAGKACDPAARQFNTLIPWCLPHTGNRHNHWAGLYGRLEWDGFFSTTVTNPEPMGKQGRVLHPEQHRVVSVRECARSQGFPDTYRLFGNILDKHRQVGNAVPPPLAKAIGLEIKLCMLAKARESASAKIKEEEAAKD
Sequence of Large T antigen (P03070 whole entry): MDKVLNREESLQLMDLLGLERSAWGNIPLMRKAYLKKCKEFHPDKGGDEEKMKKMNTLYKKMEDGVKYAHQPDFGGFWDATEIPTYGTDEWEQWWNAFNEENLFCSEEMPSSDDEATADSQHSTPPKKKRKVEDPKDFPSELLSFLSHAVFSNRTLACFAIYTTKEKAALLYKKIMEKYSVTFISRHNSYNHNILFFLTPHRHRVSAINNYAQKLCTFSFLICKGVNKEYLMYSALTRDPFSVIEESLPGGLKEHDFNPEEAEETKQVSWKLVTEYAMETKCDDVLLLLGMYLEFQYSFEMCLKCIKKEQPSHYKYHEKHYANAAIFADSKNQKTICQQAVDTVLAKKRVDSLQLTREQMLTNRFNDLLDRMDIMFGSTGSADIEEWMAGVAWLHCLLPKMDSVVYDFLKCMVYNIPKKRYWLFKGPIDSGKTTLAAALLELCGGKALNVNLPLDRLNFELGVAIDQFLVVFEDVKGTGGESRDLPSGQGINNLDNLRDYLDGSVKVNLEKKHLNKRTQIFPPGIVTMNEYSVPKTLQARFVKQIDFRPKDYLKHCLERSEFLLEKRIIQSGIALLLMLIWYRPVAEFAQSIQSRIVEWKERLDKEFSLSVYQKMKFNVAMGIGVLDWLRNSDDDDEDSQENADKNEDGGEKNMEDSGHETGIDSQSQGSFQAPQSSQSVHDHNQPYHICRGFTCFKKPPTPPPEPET
Sequence of Paired box protein Pax-8 (Q06710 whole entry, the tested form may be a part): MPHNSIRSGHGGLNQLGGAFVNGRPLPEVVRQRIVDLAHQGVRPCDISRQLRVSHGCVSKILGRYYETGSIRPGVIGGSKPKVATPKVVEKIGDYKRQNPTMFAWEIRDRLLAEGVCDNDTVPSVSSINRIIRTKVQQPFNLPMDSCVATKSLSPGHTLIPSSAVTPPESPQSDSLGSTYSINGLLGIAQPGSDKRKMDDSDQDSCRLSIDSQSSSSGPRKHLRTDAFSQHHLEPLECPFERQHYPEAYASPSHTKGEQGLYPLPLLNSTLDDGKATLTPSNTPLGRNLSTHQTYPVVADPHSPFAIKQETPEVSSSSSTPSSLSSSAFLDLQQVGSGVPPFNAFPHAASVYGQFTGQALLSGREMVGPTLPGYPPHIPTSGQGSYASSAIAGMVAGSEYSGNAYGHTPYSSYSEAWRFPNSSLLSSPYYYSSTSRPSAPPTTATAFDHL
Sequence of Phospholipase A2 (P04054 whole entry): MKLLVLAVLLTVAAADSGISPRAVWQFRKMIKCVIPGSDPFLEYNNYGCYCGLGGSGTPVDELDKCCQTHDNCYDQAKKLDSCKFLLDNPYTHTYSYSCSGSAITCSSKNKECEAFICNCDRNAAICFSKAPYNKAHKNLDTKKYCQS
Sequence of Protein disulfide-isomerase (P07237 whole entry): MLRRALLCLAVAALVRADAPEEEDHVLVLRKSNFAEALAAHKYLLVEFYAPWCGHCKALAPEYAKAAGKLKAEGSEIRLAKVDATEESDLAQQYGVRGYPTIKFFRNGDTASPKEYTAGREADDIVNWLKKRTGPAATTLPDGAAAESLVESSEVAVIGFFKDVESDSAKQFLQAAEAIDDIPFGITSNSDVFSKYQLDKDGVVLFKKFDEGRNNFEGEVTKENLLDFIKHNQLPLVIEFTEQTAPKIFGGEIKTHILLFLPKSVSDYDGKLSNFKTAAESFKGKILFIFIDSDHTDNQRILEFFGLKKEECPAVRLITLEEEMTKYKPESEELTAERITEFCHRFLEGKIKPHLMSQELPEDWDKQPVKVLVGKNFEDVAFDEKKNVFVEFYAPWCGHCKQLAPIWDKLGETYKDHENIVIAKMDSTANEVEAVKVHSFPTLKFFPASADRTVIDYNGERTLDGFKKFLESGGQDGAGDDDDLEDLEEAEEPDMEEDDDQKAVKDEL

Turning to `CC(=O)OCC1=C(C(=O)O)N2C(=O)C(NC(=O)c3ccc(COc4cccc(Cl)c4Cl)o3)C2SC1` (stereo not given), the EC50 is 12.6 µM (active) on Streptokinase A, 5.04 µM (active) in test [1] and 8.94 µM (active) in the test on Streptococcus. Moreover, the IC50 in test [2] is 8.67 µM (active); in test [3], 5.07 µM (active).
Consider `CCCn1c(NCc2ccc(N(C)C)cc2)nc2ccccc21`, for which, in the test on Vero [4], the AC50 is 36.6 µM (active).
Regarding `O=C(/C=C\Nc1ccc2c(c1)OCO2)c1ccc(Cl)s1`, the IC50 in test [5] is 19.9 µM (active); in test [6], > 80 µM (inactive).
`CCCCc1cc(=O)oc2cc(C)cc(OCC(=O)N3CCC(C(N)=O)CC3)c12`: in the test on Vero [4], the AC50 is 37.5 µM (active).
In the case of `Cc1c(-n2cc(C(=O)c3ccccc3O)cc(C#N)c2=O)c(=O)n(-c2ccccc2)n1C`, the figures for the EC50 in test [7] and in test [9] were > 260 µM (inactive) and 8.01 µM (active), respectively. For the same compound, in test [8], the AC50 was 5.89 µM (active).
As for `Cc1cc(/C=C2\C(=O)NC(=O)N(c3ccc(Cl)cc3)C2=O)c(C)n1-c1sc2c(c1C#N)CCCC2`, the IC50 on Hexokinase HKDC1 is 10.8 µM (active); on Phospholipase A2, 14.1 µM (active); in test [2] it was 9.52 µM (active); on Large T antigen, 17.2 µM (active); on Cysteine protease ATG4B it was 14.7 µM (active).
As to `O=C(c1ccccc1)C1OC1C(=O)c1ccccc1` (stereo not given), the IC50 was 6 µM (active) on Interleukin-8 [10] and 2.84 µM (active) on Interleukin-8 [11].
On to `CC(=O)OC1CCC2(C)C(CCC3C4CC=C(C(C)=O)C4(C)OC(=O)CC32)C1` (stereo not given), for which the AC50 with HEK293 is 1.65 µM (active); on Paired box protein Pax-8, 6.49 µM (active). Besides, the IC50 on Interleukin-8 [10] was 1.12 µM (active); in test [12], 5.12 µM (active); at Interleukin-8 [11] it was 0.338 µM (active). The CC50 in the test on Vero [13] is 34.9 µM (active).
